Tests used:
Luminescence lifetimes = format: physicochemical
Excerpt: (§1) Quantitative parameters, i.e. absolute quantum yields under excitation at 320 nm to 340 nm and luminescence lifetimes, have been determined for the Ga8Yb2(Shi)8(MIP)4 metallacrown and Ga8Ln2 G:−0.5 polyamidoamine MC-cored dendrimers (Ln=Yb, Tb, Sm) (Table 1).
(§2) In Table 1, luminescence lifetimes (λex=355 nm) and quantum yields (λex=340 nm for samples in the solid state and λex=320 for solutions) of the Ga8Yb2(Shi)8(MIP)4 dimeric metallacrown, Ga8Ln2 G:−0.5 polyamidoamine MC-cored dendrimers (Ln=Yb, Tb, Sm) (i.e., Ga8Ln2(Shi)8(MIP)4(G:−0.5 PAMAM)4) and Ga8Yb2 G:0.5 polyamidoamine MC-cored dendrimers at room temperature (2σ values are given between parentheses) are presented. For bi-exponetial luminescence lifetimes results, values after the colon indicate the fraction contribution of the individual lifetimes to the experimental luminescence decay.
(§3) Quantitative parameters, i.e. absolute quantum yields under excitation at 350 nm (for samples in the solid state) or 325 nm (for samples in solution) and luminescence lifetimes (under excitation at 355 nm), have been determined for each of the Ga8Y2(shi)8(mip)4 G:0 polyamidoamine MC-cored dendrimer, the Ga8Y2(shi)8(mip)4 G:0 AA-capped polyamidoamine MC-cored dendrimer, and the Ga8Y2(shi)8(mip)4 G:0.5 polyamidoamine MC-cored dendrimer at room temperature. In Table 2, the 2σ values are given between parentheses. For bi-exponetial luminescence lifetimes results, values after the colon indicate the fraction contribution of the individual lifetimes to the experimental luminescence decay.

Absolute quantum yields [1] = format: physicochemical
Excerpt: as §1, §2, §3

HeLa cells = assay: Epifluorescence imaging with HeLa cells; format: cell-based; settings: 3 hours, λex 377 nm band pass 50 nm
Description: FIG. 21 depicts epifluorescence microscopy images (reproduced in black and white) obtained on HeLa cells, (Top) after incubation with a 30 μM solution of Ga8Tb2(shi)8(MIP)4 G:−0.5 polyamidoamine MC-cored dendrimer for 3 hours (λex: 377 nm, band pass 50 nm; λem: 536 nm, band pass 40 nm, 1 s of exposure) and (Bottom) untreated (control) cells. A: brightfield, B: visible emission, and C: merged image (Objective 63×);
FIG. 22 depicts epifluorescence microscopy images (reproduced in black and white) obtained on HeLa cells, (Top) after incubation with a 100 μM solution of the Ga8Yb2(shi)8(MIP)4 G:−0.5 polyamidoamine MC-cored dendrimer for 3 hours (λex: 377 nm, band pass 50 nm; λem: long pass 805 nm, 40 s of exposure), and (Bottom) untreated (control) cells. A: brightfield, B: visible emission, and C: merged image (Objective 63×);
To test if synthesized MC-cored dendrimers could be used under biological conditions and maintain the luminescence signal, HeLa cells were incubated with the Tb(III) and Yb(III) G:−0.5 polyamidoamine MC-cored dendrimers (Ga8Tb2 G:−0.5 polyamidoamine MC-cored dendrimers and Ga8Yb2 G:−0.5 polyamidoamine MC-cored dendrimers). The metallacrown complexes coated the surfaces of the cells. For a control, HeLa cells were not incubated and were imaged in a similar manner. […]

Absolute quantum yields [2] = format: physicochemical; settings: aqueous solution
[3] = Solution state (UV-Vis) absorbance; format: physicochemical; settings: approximately 2 μM to 3 μM methanol solutions; room temperature
Description: The solution state (UV-Vis) absorbance of the Sm-shi8 and the Sm-e8, Sm-m4, Smbt8 and Sm-te4 analogs was measured in approximately 2 μM to 3 μM methanol solutions at room temperature. The absorbance spectrum for each analog shown in FIG. 29 has a π-π* transition band with λmax of approximately 315 nm (31,750 cm^−1) or 335 nm (29,850 cm^−1). This π-π* transition was red-shifted by close to 25 nm from Sm-shi8 in the case of Sm-e8 and Sm-bt8.

[4] = 200 μM H2O/DMSO (4%), λex=355 nm, room temperature (Table 1)
[5] = Solid, λex=355 nm, room temperature, 2σ in parentheses (Table 1)
[6] = 200 μM H2O/DMSO (4%), λex=320 nm, room temperature (Table 1)
[7] = Solid, λex=340 nm, room temperature (Table 1)
[8] = 200 μM H2O/DMSO (4%), λex=355 nm, room temperature (Table 1), longer lifetime component
[9] = 200 μM H2O/DMSO (4%), λex=355 nm, room temperature (Table 1), shorter lifetime component
[10] = H2O/DMSO (96/4), 1 mg/mL, excitation at 355 nm, room temperature (Table 2)
[11] = Solid, excitation at 355 nm, room temperature (Table 2)
[12] = H2O/DMSO (96/4), 1 mg/mL, excitation at 325 nm, room temperature (Table 2)
[13] = Solid, excitation at 350 nm, room temperature (Table 2)

In the case of “Ga8Sm2(shi)8(MIP)4G:−0.5 PAMAM metallacrown (MC)-cored dendrimer [Ga8Sm2 Gen: −0.5]”, the Lifetime (Luminescence lifetimes; [4]) is reported as 96.2(9) μs, the Lifetime (Luminescence lifetimes; [5]) is reported as 112(1) μs and the Quantum yield (Absolute quantum yields [1]; [6]) is reported as 1.1(1) %. The Quantum yield (Absolute quantum yields [1]; [7]) was 2.31(2) %.
For “Ga8Tb2(shi)8(MIP)4 G:−0.5 polyamidoamine MC-cored dendrimer [Ga8Tb2 Gen: −0.5]”, the “fraction contribution of the individual lifetime to the experimental luminescence decay” value (“fraction contribution” for short) (Luminescence lifetimes; [8]) was 89.7(8) %, the “fraction contribution” value (Luminescence lifetimes; [9]) was 10.3(8) % and the Quantum yield (Absolute quantum yields [1]; [6]) was 6.1(3) %. The Quantum yield (Absolute quantum yields [1]; [7]) was 11.9(3) % and the “luminescence signal on epifluorescence microscope, visible range” value (HeLa cells; 30 μM, 536 nm emission, 40 nm filter, 1 s exposure) was “good quality signals were observed in the visible range”.
In the case of Ga8Yb2(Shi)8(MIP)4, the “fraction contribution” value (Luminescence lifetimes; [8]) is reported as 97.5(3) %, the “fraction contribution” value (Luminescence lifetimes; [9]) is reported as 2.5(3) % and the Quantum yield (Absolute quantum yields [1]; [6]) is reported as 9.01(7) · 10^−2%. The Quantum yield (Absolute quantum yields [1]; [7]) was 0.126(3) %.
In the case of “Ga8Yb2(shi)8(MIP)4 G:0 polyamidoamine MC-cored dendrimer [Ga8Yb2 G:0]”, the Lifetime (Luminescence lifetimes; [10]) is reported as 9.93(8) μs, the Lifetime (Luminescence lifetimes; [11]) is reported as 36.3(1) μs and the Quantum yield (Absolute quantum yields [1]; [12]) is reported as 0.53(1) %. For the same substance, the Quantum yield (Absolute quantum yields [1]; [13]) was 2.40(2) %.
With “Ga8Yb2(shi)8(MIP)4 G:0.5 polyamidoamine MC-cored dendrimer [Ga8Yb2 Gen: 0.5]” the Lifetime (Luminescence lifetimes; [10]) was 11.1(1) μs, the Lifetime (Luminescence lifetimes; [11]) was 46.3(1) μs and the Lifetime (Luminescence lifetimes; [5]) was 28.2(3) μs. The Quantum yield (Absolute quantum yields [1]; [12]) was 0.63(1) %, the Quantum yield (Absolute quantum yields [1]; [13]) was 2.83(9) % and the Quantum yield (Absolute quantum yields [1]; [7]) was 1.82(1) %.
For “Ga8Yb2(shi)8(MIP)4 G:−0.5 polyamidoamine MC-cored dendrimer [Ga8Yb2 Gen: −0.5]”, the Lifetime (Luminescence lifetimes; [4]) was 13.(1) μs, the Lifetime (Luminescence lifetimes; [5]) was 35.3(6) μs and the Quantum yield (Absolute quantum yields [1]; [6]) was 0.868(9) %. The Quantum yield (Absolute quantum yields [1]; 200 μM H2O/DMSO (4%), λex=320 nm, room temperature (Table 1), listed as Ga8Yb2 G:−0.5 polyamidoamine MC-cored dendrimer) was 0.868%, the Quantum yield (Absolute quantum yields [1]; [7]) was 3.24(9) % and the “luminescence signal on epifluorescence microscope, NIR range” value (HeLa cells; 100 μM, >805 nm emission, 40 s exposure) was “good quality signals were observed in the NIR range”. The “improvement of quantum yield compared to YnZn16 MCs assembled with pyrazinehydroxamic acid” value (Absolute quantum yields [2]) was over 77 times.
In the case of Sm2Ga8(eshi)8(ip)4 [Sm-e8], the “red-shift of π-π* transition band from Sm-shi8” value [3] is reported as about 25 nm.
With Sm2Ga8(shi)8(miph)4 [Sm-m4] the “red-shift of π-π* transition band from Sm-shi8” value [3] was “no notable redshift”.

From patent publication US10927221B2, “Dendrimeric metallacrowns” (THE REGENTS OF THE UNIVERSITY OF MICHIGAN, priority 2018, dated 2021)
